From patent US20070149508A1, “Six membered heteroaromatic inhibitors targeting resistant kinase mutations” (TargeGen, Inc., priority 2005, published 2007)
Counter-ions that a name gives are not always drawn.

Assays:
[1] = molecular target: T1, Abl (T315I) (Homo sapiens, UniProt P00519, T315I); test: Abl (T315I) Kinase Assay (KinaseGlo luminescent detection of residual ATP); type: biochemical; settings: Abl (T315I) IC50 (nM), Abl (T315I) (Upstate, 17 ng/well), Abltide 100 uM, ATP 500 nM, 60 minutes at 37° C.
T1 construct: purchased Upstate
Experimental: The assay was performed similarly to the Abl kinase assay. Abl (T315I) (Upstate, 17 ng/well); Abltide substrate (100 uM) and ATP (500 nM) comprised the reaction mixture. Compound was similarly diluted, and the reaction plate was incubated for 60 minutes at 37° C.

[2] = molecular target: Abl kinase (Homo sapiens, UniProt P00519); test: biochemical; settings: Abl IC50 (nM), Abl kinase (Invitrogen, 20 ng/well), Abltide 100 μM, ATP 500 nM, 37° C. for 60 minutes, top concentration 10 uM
Experimental: Kinase activity was assessed using luminescent detection (KinaseGlo, Promega) of residual ATP concentration in reaction mixtures containing optimized levels of kinase, substrate, ATP, compound and appropriate buffers. Kinase, substrate and ATP concentrations were determined per the supplier's recommendations. Briefly, this involved running concentration curves to select for optimal signal.
The reaction mixture (50 ul/well) consisted of Abl kinase (Invitrogen, 20 ng/well); Abltide peptide substrate (Upstate, 100 μM) and ATP (500 nM). Each compound was evaluated at a top concentration of 10 uM with 1:3 dilution steps, 10 dilution steps total. Compound was diluted into DMSO and transferred to the reaction plate, resulting in a final DMSO concentration of 2%. This amount of DMSO was determined not to interfere with the enzyme. The reaction was conducted at 37° C. for 60 minutes. The degree of inhibition was assessed using IC50 determinations, which were obtained using GraphPad Prism4.

Structure (SMILES) | IC50 [1] [nM] | IC50 [2] [nM]
Nc1nc2c(/C=C/c3cnc(Nc4ccc(S(=O)(=O)C5CCNCC5)cc4)nc3)cccc2s1 [4-((E)-2-(2-(4-(piperidin-4-ylsulfonyl)phenylamino)pyrimidin-5-yl)vinyl)benzo[d]thiazol-2-amine Hydrochloride] | 394 | 39
O=S(=O)(NCCN1CCCC1)c1ccc(Nc2ncc(/C=C/c3cccc4[nH]ccc34)cn2)cc1 [4-({5-[(E)-2-(1H-indol-4-yl)vinyl]pyrimidin-2-yl}amino)--N-[4-(2-pyrrolidin-1-ylethyl)benzenesulfonamide] | 738 | 26
Nc1nc2ccc(/C=C/c3cnc(Nc4ccc(S(=O)(=O)N(CCO)C5CCNCC5)cc4)nc3)cc2s1 [4-({5-[(E)-2-(2-amino-1,3-benzothiazol-6-vinyl]pyrimidin-2-yl}amino)-N-(2-hydroxyethyl)-N-piperidin-4-ylbenzenesulfonamide] | 33 | 84
Nc1nc2ccc(/C=C/c3cnc(Nc4ccc(S(=O)(=O)NCCO)c(N5CCNCC5)c4)nc3)cc2s1 [4-({5-[(E)-2-(2-amino-1,3-benzothiazol-6-yl)vinyl]pyrimidin-2-yl}amino)-N-(2-hydroxyethyl)-2-piperazin-1-ylbenzenesulfonamide] | 354 | 585
O=S(=O)(c1ccc(Nc2ncc(/C=C/c3cc(O)ccc3Cl)cn2)cc1)C1CCNCC1 [4-Chloro-3-(2-{2-[4-(piperidine-4-sulfonyl)-phenylamino]-pyrimidin-5-yl}-vinyl)-phenol] | 96 | 3.8
O=S(=O)(NCCN1CCCC1)c1ccc(Nc2ncc(/C=C/c3cccc4[nH]ncc34)cn2)cc1 [4-{5-[2-(1H-Indazol-4-yl)-vinyl]-pyrimidin-2-ylamino}-N-(2-pyrrolidin-1-yl-ethyl)-benzenesulfonamide] | 133 | 7.6
O=S(=O)(NC1CCNCC1)c1ccc(Nc2ncc(/C=C/c3cccc4[nH]ncc34)cn2)cc1 [4-{5-[2-(1H-Indazol-4-yl)-vinyl]-pyrimidin-2-ylamino}-N-piperidin-4-yl-benzenesulfonamide hydrochloride] | 176 | 6.2
O=S(=O)(NC1CCNCC1)c1ccc(Nc2ncc(/C=C/c3cccc4[nH]ccc34)cn2)cc1 [4-{5-[2-(1H-Indol-4-yl)-vinyl]-pyrimidin-2-ylamino}-N-piperidin-4-yl-benzenesulfonamide] | 282 | 12
Nc1nc2ccc(/C=C/c3cnc(Nc4ccc(S(=O)(=O)NC5CCNCC5)cc4)nc3)cc2s1 [4-{5-[2-(2-Amino-benzothiazol-6-yl)-vinyl]-piperidin-4-yl-benzenesulfonamide] | 29 | 47
O=S(=O)(NCCN1CCCC1)c1ccc(Nc2ncc(CCc3cc(O)ccc3Cl)cn2)cc1 [4-{5-[2-(2-Chloro-5-hydroxy-phenyl)-ethyl]-pyrimidin-2-ylamino}-N-(2-benzenesulfonamide hydrochloride] | 805 | 5
O=S(=O)(NCCN1CCCC1)c1ccc(Nc2ncc(/C=C/c3cccc(O)c3)cn2)cc1 [4-{5-[2-(3-Hydroxy-phenyl)-vinyl]-pyrimidin-2-ylamino}-N-(2-pyrrolidin-1-yl-ethyl)-benzenesulfonamide] | 141 | 7.1
O=S(=O)(NCCCO)c1ccc(Nc2ncc(/C=C/c3cccc(O)c3)cn2)cc1 [4-{5-[2-(3-Hydroxy-phenyl)-vinyl]-pyrimidin-2-ylamino}-N-(3-hydroxy-propyl)-benzenesulfonamide] | 112 | 8.9
O=S(=O)(NC1CCCNC1)c1ccc(Nc2ncc(/C=C/c3cccc(O)c3)cn2)cc1 (stereo not drawn) [4-{5-[2-(3-Hydroxy-phenyl)-vinyl]-pyrimidine-2-ylamino}-N-piperdin-3-yl-benzenesulfonamide Hydrochloride] | 60 | 12
O=S(=O)(c1ccc(Nc2ncc(/C=C/c3ccc4c(c3)CC/C4=N/O)cn2)cc1)C1CCNCC1 [5-(2-{2-[4-(Piperidine-4-sulfonyl)-phenylamino]-pyrimidin-5-yl}-vinyl)-indan-1-one oxime] | 3650 | 593
O=S(=O)(c1ccc(Nc2ncc(/C=C/c3ccc4c(c3)CC/C4=N/O)cn2)cc1)C1CCNCC1 [5-(2-{2-[4-(Piperidine-4-sulfonyl)-phenylaminol]-pyrimidin-5-yl}-vinyl)-indan-1-one oxime] | 1800 | 2420
O=S(=O)(c1ccc(Nc2ncc(/C=C/c3cccc(-c4cn[nH]c4)c3)cn2)cc1)C1CCNCC1 [5-(3-(1H-pyrazol-4-yl)styryl)-N-(4-(piperidin-4-ylsulfonyl)phenyl)-pyrimidin-2-amine Hydrochloride] | 1980 | 1740
O=S(=O)(c1ccc(Nc2ncc(/C=C/c3cccc(C(F)F)c3)cn2)cc1)C1CCNCC1 [5-(3-(difluoromethyl)styryl)-N-(4-piperidin-4-ylsulfonyl)phenyl)pyrimidin 2-amine. Triflate] | 486 | 162
Cc1cccc(/C=C/c2cnc(Nc3ccc(S(=O)(=O)C4CCNCC4)cc3)nc2)c1 [5-(3-(methyl)styryl)-N-(4-(piperidin-4-ylsulfonyl)phenyl)pyrimidin-2-amine. TFA] | 562 | 51
O=S(=O)(c1ccc(Nc2ncc(/C=C/c3ccc(C(F)F)cc3)cn2)cc1)C1CCNCC1 [5-(4-(difluoromethyl)styryl)-N-(4-(piperidin-4-ylsulfonyl)phenyl)pyrimidin-2-amine. Triflate] | 1330 | 429
O=S(=O)(c1ccc(Nc2ncc(/C=C/c3ccc4[nH]nnc4c3)cn2)cc1)C1CCNCC1 [5-((E)-2-(1H-benzo[d][1,2,3]triazol-5-yl)vinyl)-N-(4-(piperidin-4-ylsulfonyl)phenyl)pyrimidin-2-amine] | 467 | 75

Now from value to compound:

IC50 [1] [nM] | IC50 [2] [nM] | Structure (SMILES)
237 | 233 | CCNC(=O)N1CCC(S(=O)(=O)c2ccc(Nc3ncc(/C=C/c4ccc5nc(N)sc5c4)cn3)cc2)CC1 [4-(4-{5-[2-(2-Amino-benzothiazol-6-yl)-vinyl]-benzenesulfonyl)-piperidine-pyrimidin-2-ylamino)-1-carboxylic acid ethylamide]
> 10000 | 174 | N#Cc1ccc(Nc2ncc(/C=C/c3cccc4[nH]ccc34)cn2)cc1 [4-(5-((E)-2-(1H-indol-4-yl)vinyl)pyrimidin-2-ylamino)benzonitrile]
40 | 25 | O=S(=O)(c1ccc(Nc2ncc(/C=C/c3ccc(O)c(O)c3)cn2)cc1)C1CCNCC1 [4-((E)-2-(2-(4-(piperidin-4-ylsulfonyl)phenylamino)pyrimidin-5-yl)vinyl)benzene-1,2-diol Hydrochloride]
38 | 109 | CN(C)CCN(C1CCNCC1)S(=O)(=O)c1ccc(Nc2ncc(/C=C/c3ccc4nc(N)sc4c3)cn2)cc1 [4-({5-[(E)-2-(2-amino-1,3-benzothiazol-6-yl)vinyl}pyrimidin-2-yl}amino)-N-[2-(dimethylamino)ethyl]-N-piperidin-4-ylbenzenesulfonamide]
45 | 93 | CN(C1CCNCC1)S(=O)(=O)c1ccc(Nc2ncc(/C=C/c3ccc4nc(N)sc4c3)cn2)cc1 [4-{5-[2-(2-Amino-benzothiazol-6-yl)-vinyl]pyrimidin-2-ylamino}-N-methyl-N-piperidin-4-yl-benzensulfonamide Hydrochloride]
898 | 1440 | Nc1nc2ccc(/C=C/c3cnc(Nc4ccc(S(=O)(=O)NC5CCCNC5)cc4)nc3)cc2s1 (stereo not drawn) [4-{5-[2-(2-Aminobenzothiazol-6-yl)-vinyl]-pyrimidin-2-ylamino}-N-piperidin-3-yl-benzenesulfonamide Hydrochloride]
390 | 7.7 | O=S(=O)(NCCN1CCCC1)c1ccc(Nc2ncc(/C=C/c3cc(O)ccc3Cl)cn2)cc1 [4-{5-[2-(2-Chloro-5-hydroxy-phenyl)-vinyl]-pyrimidin-2-ylamino}-N-(2-pyrrolidin-1-yl-ethyl)-benzenesulfonamide]
240 | 25 | O=S(=O)(NCCN1CCCC1)c1ccc(Nc2ncc(/C=C/c3cc(O)ccc3F)cn2)cc1 [4-{5-[2-(2-Fluoro-5-hydroxy-phenyl)-vinyl]-pyrimidin-2-ylamino}-N-(2-pyrrolidin-1-yl-ethyl)-benzenesulfonamide]
436 | 39 | Cc1nc(Nc2ccc(S(=O)(=O)NCCN3CCCC3)cc2)ncc1/C=C/c1cccc(O)c1 [4-{5-[2-(3-Hydroxy-phenyl)-vinyl]-4-methyl-pyrimidin-2-ylamino}-N-(2-pyrrolidin-1-yl-ethyl)-benzenesulfonamide]
248 | 16 | Cc1cc(Nc2ncc(/C=C/c3cccc(O)c3)cn2)cc(C)c1S(=O)(=O)N(C)CCN1CCCC1 [4-{5-[2-(3-Hydroxy-phenyl)-vinyl]-pyrimidin-2-ylamino}-2,6,N-trimethyl-N-(2-pyrrolidin-1-yl-ethyl)-benzenesulfonamide]
36 | 4.6 | O=S(=O)(NC1CCNCC1)c1ccc(Nc2ncc(/C=C/c3cccc(O)c3)cn2)cc1 [4-{5-[2-(3-Hydroxy-phenyl)-vinyl]-pyrimidine-2-ylamino}-N-piperdin-4-yl-benzenesulfonamide Hydrochloride]
3200 | 565 | O=S(=O)(c1ccc(Nc2ncc(/C=C/c3cccc(C(F)(F)F)c3)cn2)cc1)C1CCNCC1 [5-(3-(trifluoromethyl)styryl)-N-(4-(piperidin-4-ylsulfonyl)phenyl)pyrimidin-2-amine. TFA]
202 | 191 | O=S(=O)(c1ccc(Nc2ncc(/C=C/c3n[nH]c4ccccc34)cn2)cc1)C1CCNCC1 [5-((E)-2-(1H-indazol-3-yl)vinyl)-N-(4-(piperidin-4-ylsulfonyl)phenyl)pyrimidin-2-amine Hydrochloride]
